Laboratory results as given in patent US20170296621A1, “NOD2-DEPENDENT PATHWAY OF CYTOPROTECTION OF STEM CELLS” (INSTITUT PASTEUR, priority 2012, published 2017).
Structures can show the parent of a compound that is named as a salt.

Columns and labels:
crypts from Nod1 KO mice = test: Organoid formation from crypts of Nod1 KO mice upon MAMP stimulation; format: cell-based
Text: FIG. 4 illustrates the fold change in number of organoids, formed from extracted crypts, from mice knocked out for Nod1 or Nod2 genes, upon different MAMPs stimulation conditions. By definition, the fold change of the untreated organoids is set to 1, and the fold changes upon the various stimulation conditions applied are by reference to the non-stimulated organoids.
Intestinal crypts were obtained following a protocol already described (Sato et al., 2009). After isolation small intestines were isolated, flushed with cold PBS followed by 0.3% bleach and again PBS, opened longitudinally and the villi were removed. […] After severals vigourous shakings the crypts, released in the supernatant, were passed through a cell strainer 70 μm (BD Falcon), spun down at 800 rpm, resuspended in DMEM and counted. […]

intestinal crypts [1] = test: Organoid formation from isolated intestinal crypts upon MAMP stimulation; format: cell-based, mice; conditions: wt crypts; 10 μg/ml
Experimental: Crypts were stimulated with soluble sonicated peptidoglycan (PGN), muramyl-dipeptide (MDP), muramyl-tetrapeptide (Tetra-dap), Escherichia coli lipopolysaccharide (LPS) (each at 10 μg/ml), 10 ng/ml flagellin (Fla), 500 ng/ml synthetic lipoprotein (Pam3CSK), or 1 μM unmethylated CpG dinucleotides (CpG). The average number of non-stimulated organoids (control) is around 50, and the fold change value of the control is fixed to 1. The fold change upon the various MAMPs applied is thus by reference to non-stimulated organoids (Ctrl).
Intestinal crypts were obtained following a protocol already described (Sato et al., 2009). After isolation small intestines were isolated, flushed with cold PBS followed by 0.3% bleach and again PBS, opened longitudinally and the villi were removed. The tissues were cutted in small pieces, washed in 5 mM PBS/EDTA for 5 min, and subsequently incubated in fresh 5 mM PBS/EDTA for 30 min on ice. After severals vigourous shakings the crypts, released in the supernatant, were passed through a cell strainer 70 μm (BD Falcon), spun down at 800 rpm, resuspended in DMEM and counted. The volume corresponding to 500 crypts was distributed in two tubes per condition, and spun down again. […] The crypts were embedded in 50 μl of growth factor reduced matrigel (BD Biosciences) in a 24-well plates, incubate at 37° C. […]

[2] = tested on: intestinal stem cells in crypts; test: Organoid formation under induced stress (doxorubicin or H2O2); format: cell-based, mice; conditions: 1 μM; after 4 days of treatment
Experimental: By definition, the fold change of the untreated organoids is set to 1 in the absence of any additional stress, and the fold changes upon the various stimulation or stress conditions applied are by reference to the non-stimulated non-stressed organoids.
Doxorubicin (1 μM) or H2O2 (200 μM) are added during the embedding of the crypts in the matrigel.
Intestinal crypts were obtained following a protocol already described (Sato et al., 2009). After isolation small intestines were isolated, flushed with cold PBS followed by 0.3% bleach and again PBS, opened longitudinally and the villi were removed. The tissues were cutted in small pieces, washed in 5 mM PBS/EDTA for 5 min, and subsequently incubated in fresh 5 mM PBS/EDTA for 30 min on ice. After severals vigourous shakings the crypts, released in the supernatant, were passed through a cell strainer 70 μm (BD Falcon), spun down at 800 rpm, resuspended in DMEM and counted. The volume corresponding to 500 crypts was distributed in two tubes per condition, and spun down again. […] The crypts were embedded in 50 μl of growth factor reduced matrigel (BD Biosciences) in a 24-well plates, incubate at 37° C. 20 min and overload with 500 μl of crypts medium (CM) as described previously (Sato et al 2009). […]

intestinal crypts [3] = test: Caspase-3 positive crypts in doxorubicin-treated mice; format: in vivo; conditions: intraperitoneal, 6 hours
Experimental: FIG. 11 depicts the percentage of caspase-3 positive crypts in different conditions. The results are obtained after 6 hours.
Line 1: WT, non-treated mice. Line 2: Nod2 KO mice, non-treated. Line 3: WT mice, treated with doxorubicin during 6 hours. Line 4: Nod2 KO mice, treated with doxorubicin during 6 hours. It can be observed that the absence of Nod2 induced more death in the crypts.
B6.129P2-Lgr5^tm1(cre/ESR1)Cle/mice (Lgr5-EGFP) (Barker et al., 2007) were purchased from The Jackson Laboratories. Card4/Nod1 (Nod1 KO) mice were generated by Millenium pharmaceuticals Boston. Card15/Nod2 deficient C57BL/6J (Nod2 KO) (Barreau et al., 2007) were provided by J.-P. Hugot (Hôpital Robert Debré, Paris, France). All mice were kept in specific pathogen-free conditions. When indicated the mice were injected intraperitoneally with 200 μg of EdU (Invitrogen) 2 hrs prior to sacrifice or with 10 mg/kg doxorubicin hydrochloride (Sigma) and sacrificed at indicated time points. […]
Doxorubicin in vivo. […] The percentage of crypts presenting at least one caspase3-positve cell was counted. […] To evaluate if upon doxorubicin treatment the proliferation index was affected, the number of EdU positive cells per crypts was counted and the percentage versus the total number of cells in the crypts was calculated.

intestinal crypts [4] = test: Proliferation index and regenerative crypts after doxorubicin injection; format: in vivo, mice; conditions: for Percentage of regenerative crypts / Relative size of crypts: 72 h after injection; for Relative size of crypts: crypt width×crypt height
Experimental: FIG. 13 illustrates the percentage of EdU-positive cells per crypt, in wild-type or Nod2 KO mice, after 2 hours of EdU (5-ethynyl-2-deoxyuridine) treatment.
For the analysis of proliferation in the tissue, 10 mg/kg EdU were injected IP and the animals were sacrificed after 2 h. The Click-iT® EdU Alexa Fluor® 488 Imaging Kit was used on paraffin slides that were processed according to the manufacturer's instructions.
The proliferation index was calculated as a percentage of EdU positive cells over the total number of cells in each crypt. Data from five mice each group were obtained and at least 50 crypts per section were examined for all histological parameters. A regenerative crypt was defined as a crypt containing more than 10 EdU positive cells per crypt. Relative crypt size was determined as crypt width×crypt height.
In order to evaluate the capacity of stem cells to survive and repair the damaged tissue upon doxorubicin-treatment, the inventors used a modified clonogenic microcolony assay (Tustison et al). At 72 h wt mice presented higher percentage of regenerative/surviving crypts than in Nod2 KO mice and this was associated with a bigger size of the crypts (Table 1).

[5] = tested on: wt stem cells (Lgr5-EGFP); test: Single cells stimulation: organoids from sorted wt stem cells; format: cell-based, mice; conditions: wt stem cells alone; 500 cells per well
Experimental: FIG. 8 depicts the average number of organoids formed per well, depending on the cell types seeded in the well, without stimulation, or under stimulation with MDP. 500 cells were seeded per well in a 96-wells-plate.
Isolated crypts from Lgr5-EGFP mice or Nod2KO mice were incubated in HBSS w/o Ca^+2 and Mg^2+ supplemented with 0.3 U/ml Dispase (BD Biosciences), 0.8 U/ml DNase (Sigma) and 10 μM Y-27632 (Sigma) for 30 min at 37° C.
Dissociated cells were washed with 1% PBS/BSA and stained with CD24-APC antibody (clone M1/69 BioLegend) and EpCam Pe-Cy7 (clone G8.8 BioLegend) for 20 min at 4° C., resuspended in crypts medium supplemented with 1 μM N-acetyl-L-cystein, 10 μM Jag-1 (Anaspec) and 10 μM Y-27632 (single cells medium-SCM) and filtered with a 20 μm mesh and analyzed with MoFlo legacy (Beckman Coulter).
Singlets of viable epithelial cells were gated by negative staining for propidium iodide and positive staining for EpCam. The stem cells and Paneth cells were isolated respectively as GFP^hi+ population, and GFP^−CD24^hi+SSC^hi population.
Stem cells and Paneth cells derived from Lgr5-EGFP or Nod2KO mice were cultured alone or in different combinations. 500 cells from each condition were re-suspended in 100 μl of single cells medium with or without MAMPs and, when indicated, with 100 ng/ml wnt3 (R&D), seeded in 96-wells round-bottom plates and incubated on ice for 15 min. […]

**Q.** `CC(=O)NC1C(O)OC(CO)C(O)C1OC(C)C(=O)NC(C)C(=O)NC(CCC(=O)O)C(N)=O` (stereo not shown) [MDP-ctrl] was tested. Which “number of organoids compared with control (in words)” value (crypts from Nod1 KO mice) did it give?
**A.** No difference was observed

**Q.** How did the “number of organoids compared with non-stimulated (in words)” value (intestinal crypts [1]) turn out when `CC(=O)NC1C(O)OC(CO)C(O)C1OC(C)C(=O)NC(C)C(=O)NC(CCC(=O)NC(CCCC(N)C(=O)O)C(=O)NC(C)C(=O)O)C(=O)O` (stereo not shown) [Tetra-dap, MurNAc-Tetra(DAP)] was run?
**A.** did not observe any differences and not

**Q.** Which “less organoids after treatment” value [2] does the source give for `COc1cccc2c1C(=O)c1c(O)c3c(c(O)c1C2=O)C[C@@](O)(C(=O)CO)C[C@@H]3O[C@H]1C[C@H](N)[C@H](O)[C@H](C)O1` [doxorubicin, doxorubicin hydrochloride] here?
**A.** 50%

**Q.** And the “percentage of crypts with apoptotic (caspase-3 positive) cells” value (intestinal crypts [3]; Nod2 KO mice)?
**A.** 54%

**Q.** And the “percentage of crypts with apoptotic (caspase-3 positive) cells” value (intestinal crypts [3]; wt mice)?
**A.** 30%

**Q.** What about the “Percentage of regenerative crypts” value (intestinal crypts [4]; Nod2 KO mice) of the same molecule?
**A.** 33.9 ± 9.4 %

**Q.** And the “Relative size of crypts” value (intestinal crypts [4]; Nod2 KO mice)?
**A.** 2538 ± 180

**Q.** And the “proliferation index in crypts (in words)” value (intestinal crypts [4]; Nod2 KO mice, following days)?
**A.** low rate of proliferation

**Q.** What about the “proliferation index in crypts (in words)” value (intestinal crypts [4]; both wt and Nod2 KO mice, 6h until 24 h after injection) of the same molecule?
**A.** decrease in the rate of proliferation

**Q.** What about the “proliferation index in crypts (in words)” value (intestinal crypts [4]; wt mice, 48 h until 72 h) of the same molecule?
**A.** reaching almost the same rate observed in the non-treated mice

**Q.** What about the “Percentage of regenerative crypts” value (intestinal crypts [4]; wt mice) of the same molecule?
**A.** 59.9 ± 6.4%

**Q.** And the “Relative size of crypts” value (intestinal crypts [4]; wt mice)?
**A.** 3231 ± 105

B1: wnt ligand: 100 ng/ml wnt3 (R&D) added to stem cells (protein, UniProt P56703 22-355, looked up)
Proto-oncogene Wnt-3: GYPIWWSLALGQQYTSLGSQPLLCGSIPGLVPKQLRFCRNYIEIMPSVAEGVKLGIQECQHQFRGRRWNCTTIDDSLAIFGPVLDKATRESAFVHAIASAGVAFAVTRSCAEGTSTICGCDSHHKGPPGEGWKWGGCSEDADFGVLVSREFADARENRPDARSAMNKHNNEAGRTTILDHMHLKCKCHGLSGSCEVKTCWWAQPDFRAIGDFLKDKYDSASEMVVEKHRESRGWVETLRAKYSLFKPPTERDLVYYENSPNFCEPNPETGSFGTRDRTCNVTSHGIDGCDLLCCGRGHNTRTEKRKEKCHCIFHWCCYVSCQECIRIYDVHTCK
**Q.** With B1 as the molecule, how does the “average of organoids per well” value [5] read?
**A.** around 3 organoids per well
